Measurements: US20150374394A1, “SONOLYSIS WITH BIODEGRADABLE NANOPARTICLES” (THE BOARD OF TRUSTEES OF THE UNIVERSITY OF ARKANSAS, priority 2012, published 2015)

Test system: clots formed from pooled rabbit plasma with rabbit blood cells
Experiment: In vitro sonothrombolysis (STBL) of clots with MBs, CPDL, tPA and/or 450 nm StNPs, pulsed 1 MHz ultrasound
Conditions: pulsed 1 MHz ultrasound 15 min, in bovine calf serum, 0.5 mL/min; control ultrasound alone; 3 μm MBs, 0.1 mg/ml tPA, 0.06% w/V CPDL nanoemulsion
Description: FIG. 1 depicts a graph showing the potentiation of sonothrombolysis (STBL) efficacy by microbubbles (MBs) and/or a nanoemulsion of cyclopentadecanolide with or without tissue plasminogen activator (tPA). […] STBL was performed with fibrin-rich clots (see Example 2) using pulsed, 1 MHz ultrasound for 15 min. The MBs, tPA, StNPs etc. were suspended in bovine calf serum and introduced at a flow rate of 0.5 mL/min. STBL efficacy is reported as % clot lysis. Abbreviations: US=ultrasound; MBs=microbubbles; CPDL=cyclopentadecanolide; StNPs=starch nanoparticles; tPA=tissue plasminogen activator.
The clots used in these experiments were formed by mixing pooled rabbit plasma with rabbit blood cells (final volume equal to 2 mL; the volume of whole rabbit blood from which the cells were obtained), incubating this mixture for 24 h at 37° C. and then curing the formed clots for 24 h at 5° C. […] The StNPs were diluted to have an Optical Density reading at 530 nm (OD530) of 1.0. […] STBL efficacy was measured as the percent of the initial clot mass that was lost from the clot during the 15 min treatment time.

O=C1CCCCCCCCCCCCCCO1 [CPDL, cyclopentadecanolide]
STBL efficacy (FIG. 1), in words: improved STBL efficacy markedly
